In patent US6852735B1, “Siastatin B derivatives having a glycosidase inhibitory activity and processes for producing the same” (Zaidan Hojin Biseibutsu Kagaku Kenkyu Kai, priority 1998, dated 2005):
Counter-ions that a name gives are not always drawn.

SMILES	melting point
CC(=O)NC1NCC(CO)C(O)C1O (stereo not drawn) (as salt: hydrochloride) [Formula (V), 3-decarboxy-4-epi-3-hydroxymethyl-siastain B]	201 to 202 °C (dec.)
O=C(N[C@H]1NC[C@H](CO)[C@@H](O)[C@@H]1O)C(F)(F)F (as salt: hydrochloride) [Formula (X), 6-deacetamido-3-decarboxy-4-epi-3-hydroxymethyl-6-trifluoroacetamido-siastain B]	88 to 90 °C
